From PMC7660650, “Chemical Starting Matter for HNF4α Ligand Discovery and Chemogenomics” (International Journal of Molecular Sciences, 2020) come the findings set out here.

The structures appear in SMILES notation. “And” between values parts separate entries of the source, which are not always exact repeats. Equal values may be shown once.

This experiment has as its target T1, Gal4-HNF4α (human HNF4α LBD) (Homo sapiens, UniProt P41235).
T1 construct: uniprot entry: P41235-1, residues 142-377; expressed in transfected cells; host or cells: HEK293T
T1 sequence (P41235 142-377): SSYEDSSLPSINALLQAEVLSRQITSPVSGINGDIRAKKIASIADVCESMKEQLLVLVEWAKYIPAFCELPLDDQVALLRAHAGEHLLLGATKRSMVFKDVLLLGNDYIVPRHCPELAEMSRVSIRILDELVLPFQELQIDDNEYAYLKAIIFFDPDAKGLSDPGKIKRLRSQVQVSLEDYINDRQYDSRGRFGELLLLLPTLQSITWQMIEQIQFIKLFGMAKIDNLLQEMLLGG
Nature of the experiment: Hybrid Gal4-HNF4α reporter gene assay in transiently transfected HEK293T cells. It counts as cell-based. The note with it: Table S1, primary screening, 50 µM. In general terms: A reporter such as luciferase makes a cellular process visible.

In the case of `COC(=O)c1c[nH]c2ccccc12` [Prestw-Frag-2799, COC(=O)c1c[nH]c2ccccc12], the “HNF4a-screening_activity_(mean_of_n=2)” value worked out at 0.9379.
The value for `COc1cc(C)cc(C)c1C` [Prestw-Frag-1506, COc1cc(C)cc(C)c1C] was 1.143.
For the compound `NC(=O)N1CCNCC1` [Prestw-Frag-3723, NC(=O)N1CCNCC1], the “HNF4a-screening_activity_(mean_of_n=2)” value is 1.067.
For `Cc1ccccc1C(=O)Nc1ccccc1` [Prestw-Frag-3202, Cc1ccccc1C(=O)Nc1ccccc1] the value was 1.357; for `NC(=O)C(c1ccccc1)c1ccccc1` [Prestw-Frag-2366, NC(=O)C(c1ccccc1)c1ccccc1], 0.8824.
As to `O=c1[nH]nc(Cc2ccc(Cl)cc2)c2ccccc12` [Prestw-Frag-1559, Clc1ccc(Cc2n[nH]c(=O)c3ccccc23)cc1], the “HNF4a-screening_activity_(mean_of_n=2)” value is 1.206 and 0.9531.
For `Nc1ccccn1` [Prestw-Frag-2443, Nc1ccccn1] the value was 1.112; for `O=C(O)CC[C@H](NC(=O)c1ccccc1)C(=O)O` [Prestw-Frag-1499, OC(=O)CC[C@H](NC(=O)c1ccccc1)C(O)=O], 1.11; for `CC(=O)C1CCNCC1` [Prestw-Frag-3756, CC(=O)C1CCNCC1], 0.9377.
For `c1ccc2c(c1)NCCO2` [Prestw-Frag-3732, C1COc2ccccc2N1], the “HNF4a-screening_activity_(mean_of_n=2)” value worked out at 1.144.
With `COc1ccc(CCN)cc1OC` [Prestw-Frag-3454, COc1ccc(CCN)cc1OC], the “HNF4a-screening_activity_(mean_of_n=2)” value amounted to 1.113.
The value for `Nc1ccc[nH]c1=O` [Prestw-Frag-1060, Nc1ccc[nH]c1=O] was 1.316 and 1.113; that for `c1ccc(C(CCN2CCCCC2)c2ccccc2)cc1` [Prestw-Frag-1193, C(CN1CCCCC1)C(c1ccccc1)c1ccccc1] was 0.8943 and 1.009.
In the case of `Oc1cccc2[nH]ccc12` [Prestw-Frag-3696, Oc1cccc2[nH]ccc12], the “HNF4a-screening_activity_(mean_of_n=2)” value worked out at 0.9739.
On to `CNC(=O)c1c(-c2ccccc2)noc1C` [Prestw-Frag-3690, CNC(=O)c1c(C)onc1-c1ccccc1], for which the “HNF4a-screening_activity_(mean_of_n=2)” value amounted to 0.8222.
On to `CN1CCNCC1=O` [Prestw-Frag-3460, CN1CCNCC1=O], for which the “HNF4a-screening_activity_(mean_of_n=2)” value turned out to be 1.233.
For `NC1CCc2ccccc21` (stereo not shown) [Prestw-Frag-3462, NC1CCc2ccccc12] the value was 1.151.
For `Cc1cc(=O)n(-c2ccccc2)[nH]1` [Prestw-Frag-1028, Cc1cc(=O)n([nH]1)-c1ccccc1] the value was 1.027; for `CC(=O)c1ccc2c(c1)OCO2` [Prestw-Frag-3686, CC(=O)c1ccc2OCOc2c1], 0.9343.
For `COc1cc2c(cc1OC)CNCC2` [Prestw-Frag-1276, COc1cc2CCNCc2cc1OC] the value was 1.117; for `Clc1cccc(N2CCNCC2)c1Cl` [Prestw-Frag-2853, Clc1cccc(N2CCNCC2)c1Cl], 1.239; for `COc1ccc(CC(=O)O)cc1` [Prestw-Frag-2960, COc1ccc(CC(O)=O)cc1], 0.9108.
Consider `c1cc2c(s1)CCNC2` [Prestw-Frag-1694, C1Cc2sccc2CN1], for which the “HNF4a-screening_activity_(mean_of_n=2)” value is 1.028 and 1.127.
For `c1cncc(CN2CCNCC2)c1` [Prestw-Frag-3722, C(N1CCNCC1)c1cccnc1] the value was 0.9979.
With `Cc1nc(-c2ccccc2F)cs1` [Prestw-Frag-3745, Cc1nc(cs1)-c1ccccc1F], the “HNF4a-screening_activity_(mean_of_n=2)” value was found to be 1.103.
The value for `Fc1ccc(C(c2ccc(F)cc2)N2CCNCC2)cc1` [Prestw-Frag-1323, Fc1ccc(cc1)C(N1CCNCC1)c1ccc(F)cc1] was 1.017 and 1.002; that for `Nc1ccc(Cl)nn1` [Prestw-Frag-1184, Nc1ccc(Cl)nn1] was 0.9468.
The value for `COc1ccc(CCN2CCC(N)CC2)cc1` [Prestw-Frag-1051, COc1ccc(CCN2CCC(N)CC2)cc1] was 1.433.
Regarding `CC(C)(C)OC(=O)/C=C/c1ccccc1` [Prestw-Frag-2947, CC(C)(C)OC(=O)\C=C\c1ccccc1], the “HNF4a-screening_activity_(mean_of_n=2)” value was 1.247.
Consider `c1nc(C2CCNCC2)c[nH]1` [Prestw-Frag-3753, C1CC(CCN1)c1c[nH]cn1], for which the “HNF4a-screening_activity_(mean_of_n=2)” value was 0.9547.
The value for `Cc1ccc(N)c(C#N)c1` [Prestw-Frag-3060, Cc1ccc(N)c(c1)C#N] was 0.8715; that for `CC(O)(C(=O)O)c1ccccc1` (stereo not shown) [Prestw-Frag-3717, CC(O)(C(O)=O)c1ccccc1] was 1.037; that for `O=C(O)c1cccnc1Nc1cccc(Cl)c1` [Prestw-Frag-2807, OC(=O)c1cccnc1Nc1cccc(Cl)c1] was 1.808.
The value for `Cc1cnc(C(=O)O)cn1` [Prestw-Frag-1494, Cc1cnc(cn1)C(O)=O] was 0.7971 and 1.166; that for `c1ccc2c(c1)CCCN2` [Prestw-Frag-3137, C1CNc2ccccc2C1] was 0.9914; that for `NC(=O)CN1C(=O)c2ccccc2C1=O` [Prestw-Frag-1661, NC(=O)CN1C(=O)c2ccccc2C1=O] was 1.028.
For `Oc1ccccc1OCC(F)(F)F` [Prestw-Frag-3225, Oc1ccccc1OCC(F)(F)F] the value was 1.152.
As for `O=C(O)c1ccccn1` [Prestw-Frag-2541, OC(=O)c1ccccn1], the “HNF4a-screening_activity_(mean_of_n=2)” value came to 0.9518.
For `OCC(O)COc1ccccc1` (stereo not shown) [Prestw-Frag-1337, OCC(O)COc1ccccc1] the value was 0.9566; for `CCN(CC)C(=O)CC#N` [Prestw-Frag-3731, CCN(CC)C(=O)CC#N], 0.9542.
For `COc1cc(C(N)=O)cc(OC)c1OC` [Prestw-Frag-1731, COc1cc(cc(OC)c1OC)C(N)=O] the value was 0.8442.
For `Cc1nc(-c2ccccc2)c(-c2ccccc2)o1` [Prestw-Frag-2695, Cc1nc(c(o1)-c1ccccc1)-c1ccccc1] the value was 1.374.
`NCCOCc1ccccc1` [Prestw-Frag-3749, NCCOCc1ccccc1]: the “HNF4a-screening_activity_(mean_of_n=2)” value is given as 0.8708.
As for `O=c1[nH]nc(Cc2ccccc2)c2ccccc12` [Prestw-Frag-1561, O=c1[nH]nc(Cc2ccccc2)c2ccccc12], the “HNF4a-screening_activity_(mean_of_n=2)” value was 1.103.
For `N=C(N)NC(=N)Nc1ccc(Cl)cc1` [Prestw-Frag-2722, NC(=N)NC(=N)Nc1ccc(Cl)cc1] the value was 0.8665; for `NC(=O)Cc1cccs1` [Prestw-Frag-1019, NC(=O)Cc1cccs1], 1.073 and 1.154; for `Cc1ccccc1Nc1ncccc1C(=O)O` [Prestw-Frag-2806, Cc1ccccc1Nc1ncccc1C(O)=O], 1.238.
The value for `COc1ccc(CCN)cc1O` [Prestw-Frag-1064, COc1ccc(CCN)cc1O] was 1.012.
Consider `O=C(O)Cc1ccccc1` [Prestw-Frag-2579, OC(=O)Cc1ccccc1], for which the “HNF4a-screening_activity_(mean_of_n=2)” value stood at 1.086.
The value for `CCCOc1ccccc1C(=N)N` [Prestw-Frag-1910, CCCOc1ccccc1C(N)=N] was 1.045 and 1.109; that for `NS(=O)(=O)c1ccc(Cl)cc1` [Prestw-Frag-1977, NS(=O)(=O)c1ccc(Cl)cc1] was 0.8584.
The value for `CN1CCC[C@H]1c1cccnc1` [Prestw-Frag-1187, CN1CCC[C@H]1c1cccnc1] was 1.172.
As for `C[C@@H](O)c1cc(C(F)(F)F)cc(C(F)(F)F)c1` [Prestw-Frag-2849, C[C@@H](O)c1cc(cc(c1)C(F)(F)F)C(F)(F)F], the “HNF4a-screening_activity_(mean_of_n=2)” value is on record as 1.171.
For `Nc1ncc([N+](=O)[O-])s1` [Prestw-Frag-3324, Nc1ncc(s1)[N+]([O-])=O] the value was 0.8744; for `OCc1ccncc1` [Prestw-Frag-2303, OCc1ccncc1], 0.9833; for `CNCC(c1ccc(OC)cc1)C1(O)CCCCC1` (stereo not shown) [Prestw-Frag-1523, CNCC(c1ccc(OC)cc1)C1(O)CCCCC1], 1.103 and 1.105.
`Clc1ccc(-c2cncnc2)cc1` [Prestw-Frag-1704, Clc1ccc(cc1)-c1cncnc1]: the “HNF4a-screening_activity_(mean_of_n=2)” value is 0.9459 and 1.223.
`Nc1ccc([N+](=O)[O-])cc1Cl` [Prestw-Frag-1543, Nc1ccc(cc1Cl)[N+]([O-])=O]: the “HNF4a-screening_activity_(mean_of_n=2)” value was found to be 0.9851.
For `O=C1c2nccnc2C(O)N1c1ccc(Cl)cn1` (stereo not shown) [Prestw-Frag-3046, OC1N(C(=O)c2nccnc12)c1ccc(Cl)cn1] the value was 0.8017; for `COc1ccccc1OCCO` [Prestw-Frag-1338, COc1ccccc1OCCO], 0.8769 and 0.9665.
For `c1ccc(C(c2ccccc2)N2CCCNCC2)cc1` [Prestw-Frag-1817, C1CNCCN(C1)C(c1ccccc1)c1ccccc1] the value was 0.7059 and 1.011; for `COc1ccc(N)nn1` [Prestw-Frag-1167, COc1ccc(N)nn1], 1.35; for `c1nc(NC2CC2)c2nc[nH]c2n1` [Prestw-Frag-3360, C1CC1Nc1ncnc2[nH]cnc12], 1.055.
Take `O=C(NCc1cccnc1)c1ccc(O)cc1` [Prestw-Frag-1747, Oc1ccc(cc1)C(=O)NCc1cccnc1]: the “HNF4a-screening_activity_(mean_of_n=2)” value was 0.7115 and 0.9722.
